From ChEMBL document CHEMBL1201862, “PubChem BioAssay data set” (2004)
Activity calls are given as the source filed them.

Experiments:
[1] = molecular target: SWI/SNF-related matrix-associated actin-dependent regulator of chromatin subfamily A member 2 (Homo sapiens, UniProt P51531); assay: Luminescence-based cell-based high throughput dose response assay to identify activators of the function of SWI/SNF related, matrix associated, actin dependent regulator of chromatin, subfamily a, member 2 (SMARCA2, BRM).; assay type: functional
[2] = Counterscreen for activators of the function of SWI/SNF related, matrix associated, actin dependent regulator of chromatin, subfamily a, member 2 (SMARCA2, BRM): Luminescence-based cell-based high throughput dose response assay to identify non-selective compounds using the VP16 reporter assay.; assay type: functional
[3] = molecular target: Tyrosyl-DNA phosphodiesterase 2 (Homo sapiens, UniProt O95551); assay: human TDP2 enzyme inhibitors, dose response, biochemical, epi absorbance, IC50 (AID 743297)
[4] = molecular target: Long-chain-fatty-acid--AMP ligase FadD28 (Mycobacterium tuberculosis, UniProt P9WQ59); assay: Fluorescence polarization aasay to screen for inhibitors that compete for the binding of FadD28 to a bisubstrate Measured in Biochemical System Using Plate Reader - 2147-01_Inhibitor_Dose_CherryPick_Activity.; assay type: functional, Mycobacterium tuberculosis H37Rv
[5] = molecular target: Fructose-bisphosphate aldolase (Mycobacterium tuberculosis, UniProt P9WQA3); assay: Fluorescence-based biochemical high throughput dose response assay for inhibitors of the fructose-bisphosphate aldolase (FBA) of M. tuberculosis.; assay type: functional
[6] = microbe, parasite or virus in culture; assay type: functional; settings: Mycobacterium tuberculosis
[7] = Fluorescence-based cell-based high throughput dose response assay for inhibitors of the interaction of nucleotide-binding oligomerization domain containing 2 (NOD2) and the receptor-interacting serine-threonine kinase 2 (RIPK2).; assay type: functional; settings: Homo sapiens
Beta Lactamase = Beta Lactamase (Pseudomonas aeruginosa, UniProt Q932Y6); assay: beta-lactamase reporter inhibitor potency, dose response, artefact control for NOD2-RIPK2 interaction inhibitor project, BLA reporter cells, FRET fluorescence (AID 651552); assay type: functional, cell-based
[8] = HEK293T cytotoxicity, dose response, cytotoxicity control for miR-122 modulator project, cell-based, inhibitor set, cherry-pick, set 2 (AID 720697); assay type: functional
Galanin receptor type 3 = Galanin receptor type 3 (Homo sapiens, UniProt O60755); assay: Fluorescence-based cell-based primary high throughput dose response assay to identify antagonists of the Galanin Receptor 3 (GalR3).; assay type: functional
cells = assay type: functional, cell-based; settings: HEK-CNG
[9] = molecular target: Adenosylmethionine-8-amino-7-oxononanoate aminotransferase (Mycobacterium tuberculosis, UniProt P9WQ81); assay: Mycobacterium tuberculosis BioA enzyme inhibitor Measured in Biochemical System Using Plate Reader - 2163-02_Inhibitor_Dose_CherryPick_Activity.; assay type: functional, Mycobacterium tuberculosis UT205
[10] = human group III sPLA2 inhibitors, dose response, biochemical, QFRET, IC50 (AID 743457);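 also: green fluorescence rise as the enzyme cleaves BODIPY PC-A2 in liposomes; potency for inhibition of the enzyme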
[11] = ARNT/TACC3 interaction disruptors, potency, confirmation, biochemical, AlphaScreen, cherry-picked samples (AID 651703); assay type: functional, Homo sapiens;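 also: His-tagged ARNT PAS-B domain paired with GST-TACC3 E629A dimer coactivator fragment; potency of inhibitors that break up the complex and lower AlphaScreen signal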
[12] = molecular target: Hepatocyte nuclear factor 4-alpha (Homo sapiens, UniProt P41235); assay type: functional, cell-based;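 also: biochemical luminescence-based dose-response counterscreen measuring inhibition of HNF4 dimerization, run alongside a screen for blockers of ABHD5–perilipin-5 interaction; split luciferase complementation of HNF4 fusion proteins in cell lysate measuring dimerization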
Beta-galactosidase = Beta-galactosidase (Escherichia coli, UniProt Q8VNN2); assay: Dose response counterscreen for EBI2 assay utilizing the enzyme, b-galactosidase.; assay type: functional
[13] = molecular target: Peroxisome proliferator-activated receptor gamma/Nuclear receptor coactivator 1 (Homo sapiens, UniProt P37231); assay: (§1) TR-FRET dose response biochemical High Throughput Screening assay for agonists of the steroid receptor coactivator 1 (SRC-1) recruitment by the peroxisome proliferator-activated receptor gamma (PPAR gamma): non-selective agonists. [Related pubchem assays (depositor defined):AID1300, AID1808, AID504735, AID631]; assay type: protein assay
[14] = molecular target: Peroxisome proliferator-activated receptor gamma/Nuclear receptor coactivator 3 (Homo sapiens, UniProt P37231); assay: as §1, with “3 (SRC-3)” for “1 (SRC-1)”, “assays: 1301 (Confirmation screen.), 1048 (Primary screen.)]” for “assays (depositor defined):AID1300, AID1808, AID504735, AID631]”; assay type: functional
[15] = molecular target: Peroxisome proliferator-activated receptor gamma/Nuclear receptor coactivator 2 (Homo sapiens, UniProt P37231); assay: TR-FRET dose response biochemical High Throughput Screening assay for agonists of the steroid receptor coactivator 2 (SRC-2) recruitment by the peroxisome proliferator-activated receptor gamma (PPAR gamma): non-selective agonists. [Related pubchem assays: 1297, 1032 ]; assay type: functional
[16] = Counterscreen for inhibitors of Trypanosoma brucei methionyl tRNA synthetase (MetRS): Luminescence-based cell-based high throughput dose response assay to identify compounds that are cytotoxic to Jurkat human T lymphocyte cells.; assay type: functional
[17] = molecular target: T1, Endoribonuclease toxin MazF (Escherichia coli K-12, UniProt P0AE70); assay: MazF toxin RNase activators, dose response, biochemical, fluorescence, single-stranded RNA substrate, uHTS hits (AID 588481); assay type: functional
T1 sequence (P0AE70 whole entry): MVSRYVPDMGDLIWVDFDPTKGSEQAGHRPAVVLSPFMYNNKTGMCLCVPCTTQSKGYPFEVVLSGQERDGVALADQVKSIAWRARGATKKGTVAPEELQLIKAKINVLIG

[18] = molecular target: T1, Endoribonuclease toxin MazF; assay: fluorescent RNA oligo signal without MazF, dose response, counter-screen for MazEF activator project, biochemical, fluorescence, single-stranded RNase substrate (AID 588502); assay type: functional
[19] = molecular target: T2, Sentrin-specific protease 1 (Homo sapiens, UniProt Q9P0U3); assay: potency of human SENP1 inhibitors, dose response, biochemical, kinetic FRET (AID 651697); assay type: functional; settings: read-out: IC50_Mean
T2 sequence (Q9P0U3 whole entry): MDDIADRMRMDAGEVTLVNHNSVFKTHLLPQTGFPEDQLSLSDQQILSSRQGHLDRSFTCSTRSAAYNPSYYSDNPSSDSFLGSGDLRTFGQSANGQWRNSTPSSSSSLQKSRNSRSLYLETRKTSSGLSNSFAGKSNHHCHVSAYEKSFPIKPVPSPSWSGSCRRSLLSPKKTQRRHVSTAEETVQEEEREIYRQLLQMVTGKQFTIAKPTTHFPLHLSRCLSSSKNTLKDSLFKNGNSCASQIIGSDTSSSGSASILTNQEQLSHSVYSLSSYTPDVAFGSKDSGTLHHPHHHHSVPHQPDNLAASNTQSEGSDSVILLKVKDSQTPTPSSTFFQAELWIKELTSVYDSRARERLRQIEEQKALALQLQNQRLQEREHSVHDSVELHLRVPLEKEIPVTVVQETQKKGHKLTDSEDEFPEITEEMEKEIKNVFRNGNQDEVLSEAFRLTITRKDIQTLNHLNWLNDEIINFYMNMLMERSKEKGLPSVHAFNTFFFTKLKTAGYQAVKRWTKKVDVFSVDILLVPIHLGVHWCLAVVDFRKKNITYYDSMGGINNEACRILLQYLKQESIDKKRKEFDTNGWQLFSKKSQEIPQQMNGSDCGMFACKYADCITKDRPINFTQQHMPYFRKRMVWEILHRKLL

[20] = molecular target: T2, Sentrin-specific protease 1; assay: Dose response confirmation of small molecule inhibitors of the catalytic domain of the SUMO protease, SENP1 in a FRET assay.; assay type: functional; settings: read-out: IC50_Mean
[21] = molecular target: T3, DNA repair and recombination protein RAD54-like (Homo sapiens, UniProt Q92698); assay: inhibitors of human RAD54 branch migration, confirmation, biochemical, fluorescence, cherry-picked samples, dose series (AID 651657); assay type: functional
T3 sequence (Q92698 whole entry): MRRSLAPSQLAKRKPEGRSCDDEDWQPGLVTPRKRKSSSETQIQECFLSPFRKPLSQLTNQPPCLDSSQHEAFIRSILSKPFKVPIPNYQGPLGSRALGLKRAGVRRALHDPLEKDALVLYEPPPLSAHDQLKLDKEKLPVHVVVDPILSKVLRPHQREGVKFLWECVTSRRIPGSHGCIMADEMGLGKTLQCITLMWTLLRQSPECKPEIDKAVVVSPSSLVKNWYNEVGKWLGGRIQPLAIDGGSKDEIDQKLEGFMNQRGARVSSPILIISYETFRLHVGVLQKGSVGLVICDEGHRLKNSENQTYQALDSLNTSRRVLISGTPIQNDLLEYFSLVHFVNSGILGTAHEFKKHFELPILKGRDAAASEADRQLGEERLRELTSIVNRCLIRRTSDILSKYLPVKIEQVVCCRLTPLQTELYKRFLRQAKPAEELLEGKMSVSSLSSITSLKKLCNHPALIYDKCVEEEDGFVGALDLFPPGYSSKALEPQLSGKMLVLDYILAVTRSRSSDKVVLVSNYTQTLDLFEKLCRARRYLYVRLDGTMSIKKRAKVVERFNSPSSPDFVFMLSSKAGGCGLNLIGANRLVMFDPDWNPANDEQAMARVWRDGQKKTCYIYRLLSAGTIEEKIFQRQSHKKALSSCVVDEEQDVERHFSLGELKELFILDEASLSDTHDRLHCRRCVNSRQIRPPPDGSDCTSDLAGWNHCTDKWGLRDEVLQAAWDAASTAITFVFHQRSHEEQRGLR

Albumin = Albumin (Bos taurus, UniProt P02769); assay: Counterscreen for inhibitors of T-cell receptor (TCR)-CD3 interaction: Fluorescence-based biochemical high throughput dose response assay to identify inhibitors of T-cell receptor (TCR)-CD3 interaction using a TAMRA-labeled BSA probe.; assay type: functional
Sequence of Albumin (P02769 whole entry): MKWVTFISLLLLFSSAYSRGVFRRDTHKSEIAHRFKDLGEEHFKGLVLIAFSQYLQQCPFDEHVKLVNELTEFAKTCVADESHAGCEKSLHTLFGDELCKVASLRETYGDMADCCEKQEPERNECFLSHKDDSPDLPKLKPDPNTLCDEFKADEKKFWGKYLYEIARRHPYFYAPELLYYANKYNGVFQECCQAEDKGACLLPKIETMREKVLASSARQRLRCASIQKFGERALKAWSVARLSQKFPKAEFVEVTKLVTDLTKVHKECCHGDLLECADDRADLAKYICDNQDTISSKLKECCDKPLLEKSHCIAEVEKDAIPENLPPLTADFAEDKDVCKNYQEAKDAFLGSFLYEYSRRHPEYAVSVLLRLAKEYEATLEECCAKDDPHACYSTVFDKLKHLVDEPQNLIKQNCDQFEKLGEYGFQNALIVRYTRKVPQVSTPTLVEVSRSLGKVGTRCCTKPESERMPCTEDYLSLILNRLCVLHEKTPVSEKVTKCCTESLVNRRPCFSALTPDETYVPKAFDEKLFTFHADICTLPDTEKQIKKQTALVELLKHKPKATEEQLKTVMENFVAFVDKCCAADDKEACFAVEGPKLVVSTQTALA

Sequence of Fructose-bisphosphate aldolase (P9WQA3 whole entry): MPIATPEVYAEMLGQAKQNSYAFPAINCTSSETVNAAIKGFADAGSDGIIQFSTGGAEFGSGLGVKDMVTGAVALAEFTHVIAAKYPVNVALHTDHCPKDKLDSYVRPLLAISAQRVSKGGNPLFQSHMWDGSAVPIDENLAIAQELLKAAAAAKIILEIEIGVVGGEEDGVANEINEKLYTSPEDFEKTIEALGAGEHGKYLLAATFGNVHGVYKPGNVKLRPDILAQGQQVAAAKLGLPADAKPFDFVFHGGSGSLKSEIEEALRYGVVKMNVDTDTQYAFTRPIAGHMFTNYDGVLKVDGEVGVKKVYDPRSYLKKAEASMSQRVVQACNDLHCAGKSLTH
Sequence of SWI/SNF-related matrix-associated actin-dependent regulator of chromatin subfamily A member 2 (P51531 whole entry): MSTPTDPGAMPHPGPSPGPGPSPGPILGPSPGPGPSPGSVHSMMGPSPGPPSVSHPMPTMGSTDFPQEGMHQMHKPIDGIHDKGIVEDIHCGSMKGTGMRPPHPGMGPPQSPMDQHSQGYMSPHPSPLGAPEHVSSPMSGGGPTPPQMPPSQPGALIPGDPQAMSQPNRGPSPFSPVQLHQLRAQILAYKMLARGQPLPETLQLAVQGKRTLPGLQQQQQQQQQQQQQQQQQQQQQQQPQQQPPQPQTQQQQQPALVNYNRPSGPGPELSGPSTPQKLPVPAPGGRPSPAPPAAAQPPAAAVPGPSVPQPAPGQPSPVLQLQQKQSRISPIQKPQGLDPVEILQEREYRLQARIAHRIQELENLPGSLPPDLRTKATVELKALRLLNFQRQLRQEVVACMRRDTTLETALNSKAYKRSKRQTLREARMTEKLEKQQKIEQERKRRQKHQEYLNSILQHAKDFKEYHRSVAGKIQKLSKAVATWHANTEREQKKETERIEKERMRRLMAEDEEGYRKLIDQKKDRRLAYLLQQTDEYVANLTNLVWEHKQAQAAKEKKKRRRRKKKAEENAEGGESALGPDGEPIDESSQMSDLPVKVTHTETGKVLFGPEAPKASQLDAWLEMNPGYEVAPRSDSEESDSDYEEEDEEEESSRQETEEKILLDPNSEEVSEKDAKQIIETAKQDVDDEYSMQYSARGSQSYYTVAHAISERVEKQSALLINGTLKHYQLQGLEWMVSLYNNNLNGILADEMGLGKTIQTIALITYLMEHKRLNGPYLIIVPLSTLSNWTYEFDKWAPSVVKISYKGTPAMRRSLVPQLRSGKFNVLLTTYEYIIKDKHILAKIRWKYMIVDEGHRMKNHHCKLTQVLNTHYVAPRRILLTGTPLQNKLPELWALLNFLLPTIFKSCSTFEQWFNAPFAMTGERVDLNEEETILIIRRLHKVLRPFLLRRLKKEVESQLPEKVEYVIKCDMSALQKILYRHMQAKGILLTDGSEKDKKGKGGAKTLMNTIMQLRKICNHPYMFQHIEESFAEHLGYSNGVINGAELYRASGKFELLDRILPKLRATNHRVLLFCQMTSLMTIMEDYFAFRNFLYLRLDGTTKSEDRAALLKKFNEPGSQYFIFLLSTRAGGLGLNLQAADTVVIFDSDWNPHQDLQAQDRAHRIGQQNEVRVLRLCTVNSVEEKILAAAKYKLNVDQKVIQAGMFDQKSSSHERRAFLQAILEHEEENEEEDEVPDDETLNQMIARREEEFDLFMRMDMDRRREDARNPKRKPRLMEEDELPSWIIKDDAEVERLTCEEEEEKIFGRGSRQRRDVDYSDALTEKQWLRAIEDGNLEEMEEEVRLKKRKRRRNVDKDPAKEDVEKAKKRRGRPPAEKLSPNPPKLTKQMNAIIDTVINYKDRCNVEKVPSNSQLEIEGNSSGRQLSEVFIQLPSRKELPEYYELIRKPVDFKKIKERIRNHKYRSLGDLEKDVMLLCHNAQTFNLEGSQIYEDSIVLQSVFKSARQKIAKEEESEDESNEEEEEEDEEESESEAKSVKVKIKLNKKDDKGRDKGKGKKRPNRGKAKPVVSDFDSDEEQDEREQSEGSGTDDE
Sequence of Adenosylmethionine-8-amino-7-oxononanoate aminotransferase (P9WQ81 whole entry): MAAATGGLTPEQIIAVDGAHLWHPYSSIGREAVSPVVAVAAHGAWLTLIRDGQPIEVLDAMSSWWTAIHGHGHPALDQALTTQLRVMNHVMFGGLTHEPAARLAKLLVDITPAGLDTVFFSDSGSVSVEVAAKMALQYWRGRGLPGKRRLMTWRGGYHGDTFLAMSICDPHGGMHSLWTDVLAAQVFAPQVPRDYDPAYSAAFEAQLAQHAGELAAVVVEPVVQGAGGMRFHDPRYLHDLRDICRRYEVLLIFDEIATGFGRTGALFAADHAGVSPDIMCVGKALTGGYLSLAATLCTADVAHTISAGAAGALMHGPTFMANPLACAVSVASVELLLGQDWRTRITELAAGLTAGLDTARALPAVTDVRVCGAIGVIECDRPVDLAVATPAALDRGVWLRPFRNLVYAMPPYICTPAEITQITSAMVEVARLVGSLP
Sequence of Beta-galactosidase (Q8VNN2 whole entry): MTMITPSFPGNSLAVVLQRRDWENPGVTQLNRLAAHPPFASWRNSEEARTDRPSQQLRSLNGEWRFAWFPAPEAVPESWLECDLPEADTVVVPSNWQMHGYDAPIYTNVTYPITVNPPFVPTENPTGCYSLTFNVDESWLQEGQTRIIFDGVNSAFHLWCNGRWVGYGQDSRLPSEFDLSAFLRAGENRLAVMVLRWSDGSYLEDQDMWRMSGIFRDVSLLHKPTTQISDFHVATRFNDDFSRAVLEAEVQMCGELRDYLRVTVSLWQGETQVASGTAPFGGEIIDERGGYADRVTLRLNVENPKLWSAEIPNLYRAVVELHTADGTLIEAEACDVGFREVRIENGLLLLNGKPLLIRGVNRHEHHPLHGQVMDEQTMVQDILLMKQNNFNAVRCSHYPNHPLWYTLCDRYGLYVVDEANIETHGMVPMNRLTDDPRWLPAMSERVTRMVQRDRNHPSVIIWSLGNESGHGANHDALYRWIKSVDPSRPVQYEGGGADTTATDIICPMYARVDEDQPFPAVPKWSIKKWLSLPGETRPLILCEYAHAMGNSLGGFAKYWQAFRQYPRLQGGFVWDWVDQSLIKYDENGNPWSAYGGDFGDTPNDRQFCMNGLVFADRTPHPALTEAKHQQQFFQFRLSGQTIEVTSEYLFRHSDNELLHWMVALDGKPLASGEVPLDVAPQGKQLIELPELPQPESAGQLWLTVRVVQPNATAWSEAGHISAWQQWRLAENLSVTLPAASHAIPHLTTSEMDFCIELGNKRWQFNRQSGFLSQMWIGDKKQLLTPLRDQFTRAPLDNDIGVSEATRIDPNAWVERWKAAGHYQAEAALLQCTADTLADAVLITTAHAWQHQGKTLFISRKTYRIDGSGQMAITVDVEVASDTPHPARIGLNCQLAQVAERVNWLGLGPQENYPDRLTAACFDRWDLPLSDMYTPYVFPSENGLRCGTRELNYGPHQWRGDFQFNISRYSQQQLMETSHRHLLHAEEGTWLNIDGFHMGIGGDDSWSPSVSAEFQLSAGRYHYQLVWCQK
Sequence of Galanin receptor type 3 (O60755 whole entry): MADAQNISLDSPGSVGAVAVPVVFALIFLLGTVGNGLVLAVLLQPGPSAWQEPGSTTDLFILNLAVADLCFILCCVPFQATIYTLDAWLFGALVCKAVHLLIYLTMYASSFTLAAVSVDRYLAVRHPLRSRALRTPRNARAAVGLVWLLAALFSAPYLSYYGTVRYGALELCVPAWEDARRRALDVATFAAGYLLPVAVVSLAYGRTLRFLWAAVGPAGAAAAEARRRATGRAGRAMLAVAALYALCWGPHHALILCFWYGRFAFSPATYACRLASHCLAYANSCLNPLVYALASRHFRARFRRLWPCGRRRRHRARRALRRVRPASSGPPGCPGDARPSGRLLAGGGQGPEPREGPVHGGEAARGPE
Sequence of Hepatocyte nuclear factor 4-alpha (P41235 whole entry, the tested form may be a part): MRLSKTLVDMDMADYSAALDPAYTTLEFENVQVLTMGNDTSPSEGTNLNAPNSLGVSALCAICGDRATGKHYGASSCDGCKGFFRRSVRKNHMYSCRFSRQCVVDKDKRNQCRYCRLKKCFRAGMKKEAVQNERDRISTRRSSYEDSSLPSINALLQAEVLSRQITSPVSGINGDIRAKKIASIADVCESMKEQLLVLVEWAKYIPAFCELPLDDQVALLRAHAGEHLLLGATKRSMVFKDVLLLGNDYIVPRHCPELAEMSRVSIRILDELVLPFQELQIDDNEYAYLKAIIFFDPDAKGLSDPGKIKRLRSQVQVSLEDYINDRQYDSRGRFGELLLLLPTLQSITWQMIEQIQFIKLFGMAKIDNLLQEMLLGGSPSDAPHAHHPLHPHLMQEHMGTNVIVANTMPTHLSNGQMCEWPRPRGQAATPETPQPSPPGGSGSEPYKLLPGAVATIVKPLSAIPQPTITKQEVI

O=c1[nH]c2ccccc2nc1-c1cccs1
EC50 [1]: > 91.1 µM (inactive)

Oc1nc2ccccc2nc1-c1cccs1
EC50 [2]: > 91.1 µM (inactive)

CCCCn1c(NS(=O)(=O)c2ccc(C)cc2)c(C(=O)OCC)c2nc3ccccc3nc21
IC50 [3]: > 128 µM (inactive)

CC(C)CCN=C(S)Nc1ccc2nc3n(c(=O)c2c1)CCCCC3
AC50 [4]: 39.4 µM (active)

COC(=O)Nc1nnc(-c2ccccc2OC)s1
IC50 [5]: 1.9 µM (active)

Cc1ccc(-n2nc3c(N4CCC(C(=O)NCc5ccccc5C)CC4)nnc(C)c3c2C)cc1
CC50 [6]: 27.8 µM (active)
IC50 [7]: 8.76 µM (active)
IC50 (Beta Lactamase): 16.2 µM (inactive)

Cc1ccc(C2CC(C(F)(F)F)n3nc(C(=O)NCc4ccco4)cc3N2)cc1 (stereo not given)
AC50 [8]: 1.94 µM (active)

CSc1nc(N)c(C#N)c(-c2ccccc2Cl)c1C#N
IC50 (Galanin receptor type 3): 7.09 µM (active)
EC50 (cells): > 29.9 µM (inactive)

COc1ccc(C(=O)Nc2cccc(NC(=O)c3cccs3)c2)cc1
AC50 [9]: 4.26 µM (active)

O=C(NNC(=S)Nc1ccc(Cl)cc1)c1ccccc1
IC50 [10]: > 122 µM (inactive)

NC(=O)c1cn(-c2ccccc2)nc1-c1cc2ccccc2oc1=O
IC50 (Galanin receptor type 3): 13 µM (inactive)
EC50 (cells): > 29.9 µM (inactive)

CCCCCCNc1cc2n(c(=O)n1)CCc1cc(OC)c(OC)cc1-2
AC50 [11]: 101 µM (active)

COc1ccc(/C=C\C(=O)CC(O)(c2ccccc2)C(F)(F)F)cc1 (stereo not given)
IC50 [12]: 3.93 µM (active)

O=C(c1cc2ccccc2o1)N1CCN(S(=O)(=O)c2ccc(F)c(F)c2F)CC1
IC50 (Beta-galactosidase): > 80 µM (inactive)

CN1Cc2c(N3CCOCC3)nc3sc(C#N)c(N)c3c2CC1(C)C
IC50 [5]: 1.06 µM (active)

N#Cc1ccccc1CSc1ccc(-c2nc3ccccc3[nH]2)cn1
EC50 [13]: > 79.4 µM (inactive)
EC50 [14]: > 79.4 µM (not active)
EC50 [15]: > 79.4 µM (not active)
IC50 [16]: 26.5 µM (inactive)

COc1ccc([C@H]2CC(=O)C=C(C#CC(C)(C)C)C2)cc1
IC50 (Beta-galactosidase): > 80 µM (inactive)

COc1ccc(CNC(=O)NCCc2c[nH]c3ccccc23)cc1
AC50 [8]: 1.87 µM (active)

O=C(Nc1cc(F)cc(F)c1)c1ccc(NCCc2ccccc2)c([N+](=O)[O-])c1
EC50 [17]: > 99 µM (inactive)
EC50 [18]: 88.4 µM (inactive)
IC50 [19]: 26.2 µM (inactive)
IC50 [20]: 14 µM (active)

O=C(COC(=O)c1ccc(Cl)nc1)Nc1nnc(-c2ccccc2)o1
AC50 [11]: 115 µM (active)

Nc1ncnc2c1ncn2[C@@H]1O[C@H](CNCc2ccc(OCC(=O)Nc3nccs3)cc2)[C@@H](O)[C@H]1O
AC50 [4]: 32.3 µM (active)

CCN(CC)CCNc1ccc(CO)c2oc3ccccc3c(=O)c12
IC50 [19]: 22.3 µM (inactive)
IC50 [20]: 28.4 µM (inactive)
AC50 [21]: 18.7 µM (active)

CCn1c(=O)c(=O)n(CC)c2cc(S(=O)(=O)Nc3cc(C)ccc3C)ccc21
AC50 [9]: 13.6 µM (active)

CC(=O)c1cccc(-c2cnc3c(NC=O)cc(-c4ccc(N5CCN(C)CC5)cc4)cn23)c1
EC50 [1]: > 30.4 µM (inactive)
EC50 [2]: > 91.2 µM (inactive)

CC(C)(C)NC(=O)C(c1ccccc1F)n1c(=O)c(-c2ccco2)nc2ccccc21 (stereo not given)
IC50 [12]: 1.85 µM (active)

Cc1c(C(=O)NNC(=O)c2ccccc2O)oc2ccccc12
IC50 (Albumin): > 94 µM (inactive)

C/N=C(\S)NNC(=O)c1cccn(Cc2cccc(Cl)c2)c1=O
IC50 (Albumin): > 94.1 µM (inactive)
